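Grown in 96-well plates, cells were treated for 48 hours with each compound at five concentrations. Insufficient inhibition: endpoint recorded as highest concentration tested. At the GI50, growth is halved.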 Calls of active or inactive are those of the source. Cut-off read from the data, not from the text of the source: active = GI50 up to about 1.1 µM and inactive = higher.
What was measured:
Assay in all cases: growth of human tumour cells (NCI), 48 h
CAKI-1 = test system: CAKI-1
K562 = test system: K562
SF-539 = test system: SF-539
SK-OV-3 = test system: SK-OV-3
OVCAR-3 = test system: OVCAR-3
UACC-62 = test system: UACC-62
SK-MEL-2 = test system: SK-MEL-2
U-251 = test system: U-251
UO-31 = test system: UO-31
RPMI-8226 = test system: RPMI-8226
KM12 = test system: KM12
NCI-H23 = test system: NCI-H23
COLO 205 = test system: COLO 205
OVCAR-4 = test system: OVCAR-4
OVCAR-8 = test system: OVCAR-8
HOP-62 = test system: HOP-62
786-0 = test system: 786-0
HCT-116 = test system: HCT-116

Measured: GI50

O=S1(=O)[C@H](c2ccccc2)c2c(-c3ccccc3)sc(-c3ccccc3)c2[C@@H]1c1ccccc1
inactive: CAKI-1 > 100 µM | K562 > 100 µM | SF-539 > 100 µM | SK-OV-3 > 100 µM | OVCAR-3 > 100 µM | UACC-62 > 100 µM | SK-MEL-2 > 100 µM | U-251 > 100 µM | UO-31 > 100 µM | RPMI-8226 > 100 µM | KM12 > 100 µM | NCI-H23 > 100 µM | COLO 205 > 100 µM | OVCAR-4 48.1 µM | OVCAR-8 > 100 µM | HOP-62 > 100 µM | 786-0 38.9 µM

Cc1ccc(NC(=O)C(=O)C(C(=O)c2ccc3ccccc3c2)C2OC(=O)c3ccccc32)c(C)c1 (centres undefined)
inactive: CAKI-1 6.68 µM | K562 10.4 µM | SF-539 4.84 µM | HCT-116 6.35 µM | SK-OV-3 12.5 µM | OVCAR-3 9.38 µM | UACC-62 4.54 µM | SK-MEL-2 13 µM | U-251 3.64 µM | UO-31 13.1 µM | RPMI-8226 5.87 µM | KM12 16.4 µM | NCI-H23 8.13 µM | COLO 205 11.1 µM | OVCAR-4 6.76 µM | OVCAR-8 7.67 µM | HOP-62 6.12 µM | 786-0 6.93 µM

COc1ccc(-c2oc(/C=N/NC(N)=S)c([N+](=O)[O-])c2-c2ccc(OC)c(OC)c2)cc1OC
inactive: CAKI-1 32.1 µM | K562 > 10 µM | SF-539 25.4 µM | HCT-116 19.2 µM | SK-OV-3 21 µM | OVCAR-3 16.7 µM | UACC-62 20.1 µM | SK-MEL-2 15.3 µM | RPMI-8226 17 µM | NCI-H23 32 µM | COLO 205 > 100 µM | OVCAR-4 21.7 µM | OVCAR-8 23.9 µM | HOP-62 28 µM | 786-0 27.1 µM

C=C1C(=O)OC2CCCCC3OC3C12 (centres undefined)
inactive: CAKI-1 3.36 µM | K562 12.3 µM | SF-539 11.7 µM | HCT-116 2.99 µM | SK-OV-3 16.5 µM | OVCAR-3 13.4 µM | UACC-62 3.56 µM | SK-MEL-2 12 µM | U-251 10.7 µM | UO-31 15.4 µM | RPMI-8226 5.55 µM | KM12 16.6 µM | NCI-H23 14.4 µM | COLO 205 3.23 µM | OVCAR-4 14.2 µM | OVCAR-8 15.9 µM | HOP-62 21.8 µM | 786-0 7.19 µM

COc1cccc(/C=N\NC(=O)C(C)SC(C)C(=O)N/N=C/c2cccc(OC)c2)c1 (centres undefined)
inactive: CAKI-1 34.3 µM | K562 > 78.3 µM | SF-539 > 89.1 µM | HCT-116 18.4 µM | SK-OV-3 18.1 µM | OVCAR-3 20.7 µM | UACC-62 > 54.2 µM | SK-MEL-2 39.2 µM | U-251 18 µM | UO-31 41 µM | RPMI-8226 32.7 µM | KM12 31.5 µM | NCI-H23 23.8 µM | COLO 205 24.6 µM | OVCAR-4 16.8 µM | OVCAR-8 28.4 µM | HOP-62 16 µM | 786-0 17.3 µM

CCOC(=O)c1cccc(=O)c(C(=O)OCC)c1
inactive: CAKI-1 77.3 µM | K562 36.1 µM | SF-539 26.1 µM | HCT-116 28.4 µM | SK-OV-3 > 100 µM | OVCAR-3 31.3 µM | UACC-62 34 µM | SK-MEL-2 47 µM | U-251 32.4 µM | UO-31 29.4 µM | RPMI-8226 29.3 µM | KM12 3.27 µM | NCI-H23 44 µM | OVCAR-4 48.1 µM | OVCAR-8 43.4 µM | HOP-62 33.3 µM | 786-0 63.2 µM

O=C1NC2(CCCCC2)C2CCCCC=C12 (centres undefined)
inactive: CAKI-1 > 100 µM | K562 > 100 µM | SF-539 > 100 µM | HCT-116 > 100 µM | SK-OV-3 > 100 µM | OVCAR-3 > 100 µM | UACC-62 > 100 µM | SK-MEL-2 > 100 µM | U-251 > 100 µM | UO-31 > 100 µM | RPMI-8226 > 100 µM | KM12 > 100 µM | NCI-H23 > 100 µM | COLO 205 > 100 µM | OVCAR-4 > 100 µM | OVCAR-8 > 100 µM | HOP-62 > 100 µM | 786-0 > 100 µM

O=C(NC1CCCCC1)c1c(O)[nH]c(=S)[nH]c1=O
inactive: CAKI-1 > 100 µM | SF-539 > 100 µM | HCT-116 > 100 µM | SK-OV-3 > 100 µM | OVCAR-3 > 100 µM | UACC-62 > 100 µM | SK-MEL-2 > 100 µM | U-251 88.5 µM | UO-31 79.3 µM | RPMI-8226 > 100 µM | KM12 > 100 µM | NCI-H23 > 100 µM | COLO 205 > 100 µM | OVCAR-4 > 100 µM | OVCAR-8 89.7 µM | HOP-62 > 100 µM | 786-0 > 100 µM

COc1ccc(C(c2c(O)c3ccccc3n(C)c2=O)c2c(O)c3ccccc3n(C)c2=O)cc1
inactive: CAKI-1 38.2 µM | K562 27.9 µM | SF-539 24.5 µM | HCT-116 36 µM | SK-OV-3 58.3 µM | OVCAR-3 33 µM | UACC-62 13.2 µM | SK-MEL-2 > 100 µM | U-251 19.1 µM | UO-31 36.5 µM | RPMI-8226 46 µM | KM12 22.4 µM | NCI-H23 24.5 µM | COLO 205 57.3 µM | OVCAR-4 62.8 µM | OVCAR-8 81.1 µM | 786-0 28.1 µM

CNC(=O)OCc1cc2ccncc2c2c1[nH]c1ccccc12
inactive: CAKI-1 3.21 µM | K562 17.9 µM | SF-539 > 42.6 µM | HCT-116 5.16 µM | OVCAR-3 > 100 µM | UACC-62 > 100 µM | SK-MEL-2 > 100 µM | U-251 > 39.7 µM | UO-31 > 100 µM | RPMI-8226 > 88.3 µM | KM12 5.09 µM | NCI-H23 > 100 µM | COLO 205 > 28.3 µM | OVCAR-4 > 100 µM | OVCAR-8 11.5 µM | HOP-62 10 µM | 786-0 26.7 µM

COC(=O)CC1CCN(C#N)CC1CC[N+](=O)[O-] (centres undefined)
inactive: CAKI-1 > 100 µM | K562 > 100 µM | SF-539 > 100 µM | HCT-116 > 100 µM | SK-OV-3 > 100 µM | OVCAR-3 > 100 µM | UACC-62 > 100 µM | SK-MEL-2 > 100 µM | U-251 > 100 µM | UO-31 > 100 µM | RPMI-8226 > 100 µM | KM12 > 100 µM | COLO 205 > 100 µM | OVCAR-4 > 100 µM | OVCAR-8 > 100 µM | HOP-62 > 100 µM | 786-0 > 100 µM
